Data: PMC5717064, “Alternative substrate-bound conformation of bacterial solute-binding protein involved in the import of mammalian host glycosaminoglycans” (Scientific Reports, 2017)

Experiments:
[1] = target: T1, Smon0121-Smon0122/Smon0120-Smon0120 (Streptobacillus moniliformis, UniProt D1AWD7); conditions: in presence of Smon0123 and disaccharide ligands
T1 construct: gene Smon_0120

Smon0123 (full-length) = target: T2, Smon0123 (full-length) (Streptobacillus moniliformis, UniProt D1AWE0); test: intrinsic tryptophan fluorescence titration; assay type: binding; conditions: 0.1 μM protein, 0-20 μM ligand, excitation 280 nm
T2 construct: gene Smon_0123; full-length protein, expressed in E. coli, purified by TALON, Resource Q and Superdex 200; tag not described; about 57 kDa, monomer

Smon0123 (N-18/C-5) [2] = target: T3, Smon0123 (N-18/C-5) (Streptobacillus moniliformis, UniProt D1AWE0); test: X-ray crystallography, […] Å; assay type: binding; conditions: pH 7.5, 20 °C, calcium bound; cleft between N and C domains
T3 construct: gene Smon_0123; N-terminal 18 and C-terminal 5 residues truncated (starts Met1-Lys19), expressed in E. coli, purified by DEAE and Superdex 200

Smon0123 (N-18/C-5) [3] = target: T3, Smon0123 (N-18/C-5); test: X-ray crystallography, […] Å; assay type: binding; conditions: pH 7.5; crystallised with CΔ4S6S, CΔ4S found in the cleft (contaminant or desulfation); construct printed only as Smon0123; not deposited

T3 sequence (D1AWE0 entry or part of it): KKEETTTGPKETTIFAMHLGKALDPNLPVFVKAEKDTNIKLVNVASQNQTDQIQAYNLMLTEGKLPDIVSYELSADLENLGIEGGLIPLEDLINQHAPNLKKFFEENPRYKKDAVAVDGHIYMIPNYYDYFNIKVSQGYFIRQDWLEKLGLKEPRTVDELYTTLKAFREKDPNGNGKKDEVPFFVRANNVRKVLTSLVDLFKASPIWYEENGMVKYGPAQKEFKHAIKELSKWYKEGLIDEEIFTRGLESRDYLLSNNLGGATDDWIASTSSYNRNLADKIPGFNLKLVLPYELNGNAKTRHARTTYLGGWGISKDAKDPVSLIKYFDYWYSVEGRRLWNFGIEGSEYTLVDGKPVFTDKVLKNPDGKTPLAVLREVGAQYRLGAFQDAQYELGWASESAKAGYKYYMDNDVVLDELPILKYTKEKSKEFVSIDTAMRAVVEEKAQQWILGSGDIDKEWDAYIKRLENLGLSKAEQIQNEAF
T2 sequence (D1AWE0 entry or part of it): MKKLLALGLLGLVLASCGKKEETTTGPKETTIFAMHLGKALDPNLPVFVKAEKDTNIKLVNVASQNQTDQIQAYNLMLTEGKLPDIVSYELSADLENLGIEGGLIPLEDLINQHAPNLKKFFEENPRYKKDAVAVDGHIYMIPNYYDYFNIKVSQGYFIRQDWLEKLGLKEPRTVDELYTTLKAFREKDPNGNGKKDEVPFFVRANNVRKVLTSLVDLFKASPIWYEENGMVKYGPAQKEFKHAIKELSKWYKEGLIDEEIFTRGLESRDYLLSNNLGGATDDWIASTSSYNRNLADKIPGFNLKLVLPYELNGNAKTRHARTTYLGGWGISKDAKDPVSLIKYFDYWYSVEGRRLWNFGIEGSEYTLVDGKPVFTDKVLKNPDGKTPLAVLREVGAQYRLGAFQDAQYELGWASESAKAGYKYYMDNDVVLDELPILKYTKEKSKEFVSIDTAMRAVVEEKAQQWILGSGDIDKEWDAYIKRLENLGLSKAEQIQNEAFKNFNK
T1 sequence (D1AWD7 entry or part of it): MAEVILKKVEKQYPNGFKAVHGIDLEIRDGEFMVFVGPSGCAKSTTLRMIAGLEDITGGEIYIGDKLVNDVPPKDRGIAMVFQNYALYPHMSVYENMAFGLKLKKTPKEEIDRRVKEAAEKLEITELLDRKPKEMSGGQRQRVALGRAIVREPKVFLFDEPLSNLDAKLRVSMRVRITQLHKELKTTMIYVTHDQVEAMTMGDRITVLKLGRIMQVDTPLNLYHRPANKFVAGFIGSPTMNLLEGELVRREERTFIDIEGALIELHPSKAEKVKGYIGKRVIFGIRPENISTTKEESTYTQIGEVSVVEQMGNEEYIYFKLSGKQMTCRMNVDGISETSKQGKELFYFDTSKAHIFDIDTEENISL
T1 sequence (D1AWD8 entry or part of it, further chain): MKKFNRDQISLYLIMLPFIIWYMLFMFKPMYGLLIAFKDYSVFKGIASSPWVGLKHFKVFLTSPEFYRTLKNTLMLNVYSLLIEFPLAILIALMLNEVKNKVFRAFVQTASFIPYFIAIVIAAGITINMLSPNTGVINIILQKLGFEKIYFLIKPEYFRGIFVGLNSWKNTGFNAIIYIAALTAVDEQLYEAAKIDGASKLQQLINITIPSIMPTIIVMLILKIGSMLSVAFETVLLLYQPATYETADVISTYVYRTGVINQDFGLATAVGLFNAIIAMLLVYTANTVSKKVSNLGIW
T1 sequence (D1AWD9 entry or part of it, further chain): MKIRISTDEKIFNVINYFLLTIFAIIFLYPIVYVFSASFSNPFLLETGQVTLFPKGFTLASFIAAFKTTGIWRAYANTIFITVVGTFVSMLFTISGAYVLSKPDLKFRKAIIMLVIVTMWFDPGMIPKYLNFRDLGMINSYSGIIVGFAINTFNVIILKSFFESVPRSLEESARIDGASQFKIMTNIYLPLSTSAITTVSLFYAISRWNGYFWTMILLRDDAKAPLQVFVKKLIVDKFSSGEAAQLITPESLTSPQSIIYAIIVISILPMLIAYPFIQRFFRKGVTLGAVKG

SMILES: Nc1ncnc2c1ncn2[C@@H]1O[C@H](COP(=O)(O)OP(=O)(O)OP(=O)(O)O)[C@@H](O)[C@H]1O [ATP]
- molybdenum blue phosphate release, proteoliposomes [1]: phosphate ion concentration generated through ATP hydrolysis in the presence of Smon0123 and ligands

SMILES: CC(=O)N[C@H]1C(O)O[C@H](COS(=O)(=O)O)[C@H](OS(=O)(=O)O)[C@@H]1O[C@@H]1OC(C(=O)O)=C[C@H](O)[C@H]1O (stereo partly shown) [CΔ4S6S]
- Kd (Smon0123 (full-length)): 3.86 ± 0.243 µM
- X-ray crystallography, 1.95 Å (Smon0123 (N-18/C-5) [2]): The coordinates and structure factors of Smon0123/CΔ4S6S have been deposited in the Protein Data Bank

SMILES: CC(=O)N[C@H]1C(O)O[C@H](CO)[C@H](OS(=O)(=O)O)[C@@H]1O[C@@H]1OC(C(=O)O)=C[C@H](O)[C@H]1O (stereo partly shown) [CΔ4S]
- X-ray crystallography, 2.50 Å (Smon0123 (N-18/C-5) [3]): the protein was found to interact with C∆4S but not C∆4S6S in the cleft
